Data as given in ChEMBL document CHEMBL4411284, “Discovery of novel quaternary ammonium compounds based on quinuclidine-3-ol as new potential antimicrobial candidates” (Eur J Med Chem, 2019).
Calls of active or inactive are those of the source. No cut-off for these calls is given here.

Experiments:
Klebsiella pneumoniae [1] = experiment: Bactericidal activity against Klebsiella pneumoniae ATCC 13883 preincubated for 24 to 48 hrs followed by replating on MHA plates and measured after 18 hrs by broth microdilution assay; assay type: functional
Staphylococcus aureus [2] = experiment: Bactericidal activity against Staphylococcus aureus ATCC 29213 preincubated for 24 to 48 hrs followed by replating on MHA plates and measured after 18 hrs by broth microdilution assay; assay type: functional
Aspergillus niger = experiment: Antifungal activity against Aspergillus niger after 24 to 48 hrs by broth microdilution assay; assay type: functional
Salmonella typhimurium [3] = experiment: Bactericidal activity against Salmonella typhimurium WDCM 00031 preincubated for 24 to 48 hrs followed by replating on MHA plates and measured after 18 hrs by broth microdilution assay; assay type: functional, Salmonella enterica subsp. enterica serovar Typhimurium; details: Salmonella enterica
Enterococcus faecalis [4] = experiment: Bactericidal activity against Enterococcus faecalis ATCC 29212 preincubated for 24 to 48 hrs followed by replating on MHA plates and measured after 18 hrs by broth microdilution assay; assay type: functional
Acinetobacter baumannii [5] = experiment: Bactericidal activity against Acinetobacter baumannii ATCC 19606 preincubated for 24 to 48 hrs followed by replating on MHA plates and measured after 18 hrs by broth microdilution assay; assay type: functional; details: ATCC 19606 = CIP 70.34 = JCM 6841
Staphylococcus aureus [6] = experiment: Bactericidal activity against methicillin-resistant Staphylococcus aureus clinical isolate preincubated for 24 to 48 hrs followed by replating on MHA plates and measured after 18 hrs by broth microdilution assay; assay type: functional
Penicillium citrinum = experiment: Antifungal activity against Penicillium citrinum after 24 to 48 hrs by broth microdilution assay; assay type: functional
Staphylococcus aureus [7] = experiment: Induction of membrane lysis in Staphylococcus aureus ATCC 29213 at 4 to 8 times MIC by spectroflurometric analysis based propidium iodide uptake assay; assay type: functional, organism-based
Staphylococcus aureus [8] = experiment: Antimicrobial activity against Staphylococcus aureus ATCC 29213 assessed as dead cells at 4 times MIC by fluorescence microscopic analysis; assay type: functional, organism-based
Staphylococcus aureus [9] = experiment: Induction of morphological changes in Staphylococcus aureus ATCC 29213 assessed as cell wall damage at MIC after 3 hrs by atomic force microscopic analysis; assay type: functional, organism-based
Staphylococcus aureus [10] = experiment: Antimicrobial activity against Staphylococcus aureus ATCC 29213 assessed as bacterial membrane disruption by measuring live cells at MIC after 15 mins by thiazole orange/propidium iodide staining based flow cytometric analysis (reference value: 88.47%); assay type: functional
Staphylococcus aureus [11] = experiment: Antimicrobial activity against Staphylococcus aureus ATCC 29213 after 24 to 48 hrs by broth microdilution assay; assay type: functional
Streptococcus pyogenes [12] = experiment: Bactericidal activity against Streptococcus pyogenes ATCC 19615 preincubated for 24 to 48 hrs followed by replating on MHA plates and measured after 18 hrs by broth microdilution assay; assay type: functional
Staphylococcus aureus [13] = experiment: Antimicrobial activity against Staphylococcus aureus ATCC 29213 assessed as bacterial membrane disruption by measuring dead cells at MIC after 15 mins by thiazole orange/propidium iodide staining based flow cytometric analysis (reference value: 3.22%); assay type: functional
Listeria monocytogenes [14] = experiment: Bactericidal activity against Listeria monocytogenes ATCC 19111 (1/2a) preincubated for 24 to 48 hrs followed by replating on MHA plates and measured after 18 hrs by broth microdilution assay; assay type: functional
Staphylococcus aureus [15] = experiment: Induction of membrane lysis in Staphylococcus aureus ATCC 29213 at 0.5 to 1 times MIC by spectroflurometric analysis based propidium iodide uptake assay; assay type: functional, organism-based
Klebsiella pneumoniae [16] = experiment: Bactericidal activity against Klebsiella pneumoniae clinical isolate preincubated for 24 to 48 hrs followed by replating on MHA plates and measured after 18 hrs by broth microdilution assay; assay type: functional
Pseudomonas aeruginosa [17] = experiment: Bactericidal activity against Pseudomonas aeruginosa ATCC 27853 preincubated for 24 to 48 hrs followed by replating on MHA plates and measured after 18 hrs by broth microdilution assay; assay type: functional
Acinetobacter baumannii [18] = experiment: Antimicrobial activity against Acinetobacter baumannii ATCC 19606 after 24 to 48 hrs by broth microdilution assay; assay type: functional; details: ATCC 19606 = CIP 70.34 = JCM 6841
Staphylococcus aureus [19] = experiment: Antibiofilm activity against Staphylococcus aureus ATCC 29213 at 1/32 to 1/2 times MIC after 3 days by crystal violet staining based assay relative to control; assay type: functional
Escherichia coli [20] = experiment: Antimicrobial activity against Escherichia coli ATCC 25922 after 24 to 48 hrs by broth microdilution assay; assay type: functional
Staphylococcus aureus [21] = experiment: Antimicrobial activity against Staphylococcus aureus ATCC 29213 assessed as live cells at MIC by fluorescence microscopic analysis; assay type: functional, organism-based
Escherichia coli [22] = experiment: Bactericidal activity against Escherichia coli ATCC 25922 preincubated for 24 to 48 hrs followed by replating on MHA plates and measured after 18 hrs by broth microdilution assay; assay type: functional
Enterococcus faecalis [23] = experiment: Antimicrobial activity against Enterococcus faecalis ATCC 29212 after 24 to 48 hrs by broth microdilution assay; assay type: functional
Klebsiella pneumoniae [24] = experiment: Antimicrobial activity against Klebsiella pneumoniae clinical isolate after 24 to 48 hrs by broth microdilution assay; assay type: functional
Acinetobacter baumannii [25] = experiment: Antimicrobial activity against Acinetobacter baumannii clinical isolate after 24 to 48 hrs by broth microdilution assay; assay type: functional
Staphylococcus aureus [26] = experiment: Antimicrobial activity against Staphylococcus aureus ATCC 29213 assessed as bacterial membrane disruption by measuring live cells at 4 times MIC after 15 mins by thiazole orange/propidium iodide staining based flow cytometric analysis (reference value: 88.47%); assay type: functional
Escherichia coli [27] = experiment: Bactericidal activity against Escherichia coli clinical isolate preincubated for 24 to 48 hrs followed by replating on MHA plates and measured after 18 hrs by broth microdilution assay; assay type: functional
HEK293 = experiment: Cytotoxicity against HEK293 cells assessed as reduction in cell viability after 48 hrs by MTS assay; assay type: cell-based; details: Homo sapiens, HEK293, 48 h
Escherichia coli [28] = experiment: Antimicrobial activity against Escherichia coli clinical isolate after 24 to 48 hrs by broth microdilution assay; assay type: functional
Staphylococcus aureus [29] = experiment: Antibiofilm activity against Staphylococcus aureus ATCC 29213 after 3 days by crystal violet staining based assay; assay type: functional, organism-based
Streptococcus pyogenes [30] = experiment: Antimicrobial activity against Streptococcus pyogenes ATCC 19615 after 24 to 48 hrs by broth microdilution assay; assay type: functional
Staphylococcus aureus [31] = experiment: Growth inhibition in Staphylococcus aureus ATCC 29213 at 1/4 to 1/2 times MIC after 6 hrs; assay type: functional, organism-based
Staphylococcus aureus [32] = experiment: Induction of morphological changes in Staphylococcus aureus ATCC 29213 assessed as cell wall damage at 8 times MIC after 1 hr by atomic force microscopic analysis; assay type: functional, organism-based
Candida albicans = experiment: Antifungal activity against Candida albicans ATCC 90029 after 24 to 48 hrs by broth microdilution assay; assay type: functional
Pseudomonas aeruginosa [33] = experiment: Antimicrobial activity against Pseudomonas aeruginosa ATCC 27853 after 24 to 48 hrs by broth microdilution assay; assay type: functional
Listeria monocytogenes [34] = experiment: Antimicrobial activity against Listeria monocytogenes ATCC 19111 (1/2a) after 24 to 48 hrs by broth microdilution assay; assay type: functional
Staphylococcus aureus [35] = experiment: Antimicrobial activity against methicillin-resistant Staphylococcus aureus clinical isolate after 24 to 48 hrs by broth microdilution assay; assay type: functional
Acinetobacter baumannii [36] = experiment: Bactericidal activity against Acinetobacter baumannii clinical isolate preincubated for 24 to 48 hrs followed by replating on MHA plates and measured after 18 hrs by broth microdilution assay; assay type: functional
TERT-RPE1 = experiment: Cytotoxicity against human RPE1 cells assessed as reduction in cell viability after 48 hrs by MTS assay; assay type: cell-based; details: RPE-1, 48 h
Staphylococcus aureus [37] = experiment: Induction of morphological changes in Staphylococcus aureus ATCC 29213 assessed as cell wall damage at MIC after 1 hr by atomic force microscopic analysis; assay type: functional, organism-based
Salmonella typhimurium [38] = experiment: Antimicrobial activity against Salmonella typhimurium WDCM 00031 after 24 to 48 hrs by broth microdilution assay; assay type: functional, Salmonella enterica subsp. enterica serovar Typhimurium; details: Salmonella enterica
Staphylococcus aureus [39] = experiment: Antimicrobial activity against Staphylococcus aureus ATCC 29213 assessed as bacterial membrane disruption by measuring dead cells at 4 times MIC after 15 mins by thiazole orange/propidium iodide staining based flow cytometric analysis (reference value: 3.22%); assay type: functional
Klebsiella pneumoniae [40] = experiment: Antimicrobial activity against Klebsiella pneumoniae ATCC 13883 after 24 to 48 hrs by broth microdilution assay; assay type: functional

Compound: CCCCCCCCCCCCCC[N+]12CCC(CC1)C(O)C2.[Br-] (stereo not given)
- MBC (Klebsiella pneumoniae [1]): 15.6 µg/mL
- MBC (Staphylococcus aureus [2]): 0.97 µg/mL
- MIC50 (Aspergillus niger): 0.48 µg/mL
- MIC90 (Aspergillus niger): 0.97 µg/mL
- MBC (Salmonella typhimurium [3]): 31.2 µg/mL
- MBC (Enterococcus faecalis [4]): 0.97 µg/mL
- MBC (Acinetobacter baumannii [5]): 15.6 µg/mL
- MBC (Staphylococcus aureus [6]): 3.9 µg/mL
- MIC50 (Penicillium citrinum): 1.95 µg/mL
- MIC90 (Penicillium citrinum): 3.9 µg/mL
- Activity (Staphylococcus aureus [7]): Active
- Activity (Staphylococcus aureus [8]): Active
- Activity (Staphylococcus aureus [9]): Active
- Activity (Staphylococcus aureus [10]): 66.27%
- MIC (Staphylococcus aureus [11]): 0.97 µg/mL
- MBC (Streptococcus pyogenes [12]): 0.06 µg/mL
- Activity (Staphylococcus aureus [13]): 14.54%
- MBC (Listeria monocytogenes [14]): 3.9 µg/mL
- Activity (Staphylococcus aureus [15]): inactive
- MBC (Klebsiella pneumoniae [16]): 15.6 µg/mL
- MBC (Pseudomonas aeruginosa [17]): 31.2 µg/mL
- MIC (Acinetobacter baumannii [18]): 15.6 µg/mL
- Activity (Staphylococcus aureus [19]): 2.3 - 84%
- MIC (Escherichia coli [20]): 3.9 µg/mL
- Activity (Staphylococcus aureus [21]): Active
- MBC (Escherichia coli [22]): 7.8 µg/mL
- MIC (Enterococcus faecalis [23]): 0.97 µg/mL
- MIC (Klebsiella pneumoniae [24]): 15.6 µg/mL
- MIC (Acinetobacter baumannii [25]): 7.8 µg/mL
- Activity (Staphylococcus aureus [26]): 23.66%
- MBC (Escherichia coli [27]): 15.6 µg/mL
- IC50 (HEK293): 1 µg/mL
- MIC (Escherichia coli [28]): 15.6 µg/mL
- Activity (Staphylococcus aureus [29]): Dose-dependent effect
- MIC (Streptococcus pyogenes [30]): 0.06 µg/mL
- growth inhibition (GI) (Staphylococcus aureus [31]): Active
- Activity (Staphylococcus aureus [32]): Active
- MIC50 (Candida albicans): 0.06 µg/mL
- MIC90 (Candida albicans): 0.12 µg/mL
- MIC (Pseudomonas aeruginosa [33]): 31.2 µg/mL
- MIC (Listeria monocytogenes [34]): 3.9 µg/mL
- MIC (Staphylococcus aureus [35]): 3.9 µg/mL
- MBC (Acinetobacter baumannii [36]): 15.6 µg/mL
- IC50 (TERT-RPE1): 15 µg/mL
- Activity (Staphylococcus aureus [37]): inactive
- MIC (Salmonella typhimurium [38]): 31.2 µg/mL
- Activity (Staphylococcus aureus [39]): 55.69%
- MIC (Klebsiella pneumoniae [40]): 15.6 µg/mL

Compound: CCCCCCCCCC[N+]12CCC(CC1)C(O)C2.[Br-] (stereo not given)
- MBC (Klebsiella pneumoniae [1]): 1000 µg/mL
- MBC (Staphylococcus aureus [2]): 125 µg/mL
- MIC50 (Aspergillus niger): 125 µg/mL
- MIC90 (Aspergillus niger): 250 µg/mL
- MBC (Salmonella typhimurium [3]): 1000 µg/mL
- MBC (Enterococcus faecalis [4]): 250 µg/mL
- MBC (Acinetobacter baumannii [5]): 1000 µg/mL
- MBC (Staphylococcus aureus [6]): 500 µg/mL
- MIC50 (Penicillium citrinum): 250 µg/mL
- MIC90 (Penicillium citrinum): 500 µg/mL
- MIC (Staphylococcus aureus [11]): 125 µg/mL
- MBC (Streptococcus pyogenes [12]): 15.6 µg/mL
- MBC (Listeria monocytogenes [14]): 250 µg/mL
- MBC (Klebsiella pneumoniae [16]): 1000 µg/mL
- MBC (Pseudomonas aeruginosa [17]): 2000 µg/mL
- MIC (Acinetobacter baumannii [18]): 1000 µg/mL
- MIC (Escherichia coli [20]): 250 µg/mL
- MBC (Escherichia coli [22]): 250 µg/mL
- MIC (Enterococcus faecalis [23]): 250 µg/mL
- MIC (Klebsiella pneumoniae [24]): 1000 µg/mL
- MIC (Acinetobacter baumannii [25]): 500 µg/mL
- MBC (Escherichia coli [27]): 500 µg/mL
- MIC (Escherichia coli [28]): 500 µg/mL
- MIC (Streptococcus pyogenes [30]): 15.6 µg/mL
- MIC50 (Candida albicans): 31.2 µg/mL
- MIC90 (Candida albicans): 62.5 µg/mL
- MIC (Pseudomonas aeruginosa [33]): 2000 µg/mL
- MIC (Listeria monocytogenes [34]): 250 µg/mL
- MIC (Staphylococcus aureus [35]): 500 µg/mL
- MBC (Acinetobacter baumannii [36]): 1000 µg/mL
- MIC (Salmonella typhimurium [38]): 1000 µg/mL
- MIC (Klebsiella pneumoniae [40]): 1000 µg/mL
